Here are results for one compound from ChEMBL document CHEMBL3638676, “Triazolopyridine compounds” (2015).

This test addresses Phosphodiesterase 3 (Homo sapiens, UniProt Q14432+Q13370). In words: Scintillation Proximity Assay (SPA): The kinase assay is based on the LanthaScreen technology. The class given is protein assay. Background: In a scintillation proximity assay essentially only radioactivity close to the scintillant gives light.

As usually defined, the IC50 is the midpoint of a concentration-inhibition curve. Turning to `Cn1cc(-c2cc(F)c3nnc(Sc4ccc5ncc(NCCO)cc5c4)n3c2)cn1`, the IC50 is 13 µM.
